The record followed here is publication PMC10385968, “Enzymatic Characterization of a Novel HSL Family IV Esterase EstD04 from Pseudomonas sp. D01 in Mealworm Gut Microbiota” (Molecules, 2023).

The assay deals with T1, EstD04.
T1 construct: C-terminal His6 tag (kept), pET-21a, E. coli BL21(DE3); catalytic triad Ser160/Glu253/His283; gene PCR-amplified with primers from P. nitroreducens homologue CEG18-11055 (homologue, not this protein)
Kind of assay: p-nitrophenol release at […] nm, Lineweaver-Burk. It counts as biochemical, Pseudomonas sp. D01. To be noted: pH 8.0, 40 °C, 50 mM potassium phosphate; 0.25-2 mM substrate.

Consider `CCCC(=O)Oc1ccc([N+](=O)[O-])cc1` [p-NPC4, p-nitrophenyl butyrate], for which the Km worked out at 488 ± 1 µM.
